Results reported in PubChem BioAssay (NCI).
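All cell lines were grown in 96-well plates and treated with compound for 48 hours. GI50 = concentration required for 50% inhibition of growth. TGI: concentration producing complete growth inhibition.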

Legend:
Test in all cases: NCI anticancer screen, dose series, 48 h
786-0 renal = test system: 786-0 renal
A549 NSCLC = test system: A549 NSCLC
ACHN renal = test system: ACHN renal
CCRF-CEM leukemia = test system: CCRF-CEM leukemia
COLO 205 colon = test system: COLO 205 colon
DLD-1 colon = test system: DLD-1 colon
DMS 114 small cell lung = test system: DMS 114 small cell lung
DMS 273 small cell lung = test system: DMS 273 small cell lung
HCC-2998 colon = test system: HCC-2998 colon
HCT-116 colon = test system: HCT-116 colon
HCT-15 colon = test system: HCT-15 colon
HL-60(TB) leukemia = test system: HL-60(TB) leukemia
HOP-62 NSCLC = test system: HOP-62 NSCLC
HOP-92 NSCLC = test system: HOP-92 NSCLC
HT29 colon = test system: HT29 colon
IGROV1 ovarian = test system: IGROV1 ovarian
K-562 leukemia = test system: K-562 leukemia
KM12 colon = test system: KM12 colon
KM20L2 colon = test system: KM20L2 colon
LOX IMVI melanoma = test system: LOX IMVI melanoma
LXFL 529 NSCLC = test system: LXFL 529 NSCLC
M14 melanoma = test system: M14 melanoma
M19-MEL melanoma = test system: M19-MEL melanoma
MALME-3M melanoma = test system: MALME-3M melanoma
MOLT-4 leukemia = test system: MOLT-4 leukemia
NCI-H226 lung = test system: NCI-H226 lung
NCI-H23 lung = test system: NCI-H23 lung
NCI-H460 lung = test system: NCI-H460 lung
NCI-H522 lung = test system: NCI-H522 lung
OVCAR-3 ovarian = test system: OVCAR-3 ovarian
OVCAR-4 ovarian = test system: OVCAR-4 ovarian
OVCAR-5 ovarian = test system: OVCAR-5 ovarian
OVCAR-8 ovarian = test system: OVCAR-8 ovarian
RPMI-8226 leukemia = test system: RPMI-8226 leukemia
RXF 393 renal = test system: RXF 393 renal
SF-268 CNS = test system: SF-268 CNS
SF-295 CNS = test system: SF-295 CNS
SK-MEL-2 melanoma = test system: SK-MEL-2 melanoma
SK-MEL-28 melanoma = test system: SK-MEL-28 melanoma
SK-MEL-5 melanoma = test system: SK-MEL-5 melanoma
SK-OV-3 ovarian = test system: SK-OV-3 ovarian
SN12C renal = test system: SN12C renal
SNB-19 CNS = test system: SNB-19 CNS
SNB-75 CNS = test system: SNB-75 CNS
SNB-78 CNS = test system: SNB-78 CNS
SR leukemia = test system: SR leukemia
SW-620 colon = test system: SW-620 colon
TK-10 renal = test system: TK-10 renal
U251 CNS = test system: U251 CNS
UACC-257 melanoma = test system: UACC-257 melanoma
UACC-62 melanoma = test system: UACC-62 melanoma
UO-31 renal = test system: UO-31 renal
XF 498 CNS = test system: XF 498 CNS
SF-539 CNS = test system: SF-539 CNS

Cc1ccc(C(O)/C(=N/N)c2nc3ccc([N+](=O)[O-])cc3[nH]c2=O)cc1 (stereo not drawn)
TGI (786-0 renal): > 100 µM
TGI (A549 NSCLC): > 100 µM
TGI (ACHN renal): > 100 µM
TGI (CCRF-CEM leukemia): > 100 µM
TGI (COLO 205 colon): > 100 µM
TGI (DLD-1 colon): > 100 µM
TGI (DMS 114 small cell lung): > 100 µM
TGI (DMS 273 small cell lung): > 100 µM
TGI (HCC-2998 colon): > 100 µM
TGI (HCT-116 colon): > 100 µM
TGI (HCT-15 colon): > 100 µM
TGI (HL-60(TB) leukemia): > 100 µM
TGI (HOP-62 NSCLC): > 100 µM
TGI (HOP-92 NSCLC): > 100 µM
TGI (HT29 colon): > 100 µM
TGI (IGROV1 ovarian): > 100 µM
TGI (K-562 leukemia): > 100 µM
TGI (KM12 colon): > 100 µM
TGI (KM20L2 colon): > 100 µM
TGI (LOX IMVI melanoma): > 100 µM
TGI (LXFL 529 NSCLC): > 100 µM
TGI (M14 melanoma): > 100 µM
TGI (M19-MEL melanoma): > 100 µM
TGI (MALME-3M melanoma): > 100 µM
TGI (MOLT-4 leukemia): > 100 µM
TGI (NCI-H226 lung): > 100 µM
TGI (NCI-H23 lung): > 100 µM
TGI (NCI-H460 lung): > 100 µM
TGI (NCI-H522 lung): > 100 µM
TGI (OVCAR-3 ovarian): > 100 µM
TGI (OVCAR-4 ovarian): > 100 µM
TGI (OVCAR-5 ovarian): > 100 µM
TGI (OVCAR-8 ovarian): > 100 µM
TGI (RPMI-8226 leukemia): > 100 µM
TGI (RXF 393 renal): > 100 µM
TGI (SF-268 CNS): > 100 µM
TGI (SF-295 CNS): > 100 µM
TGI (SK-MEL-2 melanoma): > 100 µM
TGI (SK-MEL-28 melanoma): > 100 µM
TGI (SK-MEL-5 melanoma): > 100 µM
TGI (SK-OV-3 ovarian): > 100 µM
TGI (SN12C renal): > 100 µM
TGI (SNB-19 CNS): > 100 µM
TGI (SNB-75 CNS): > 100 µM
TGI (SNB-78 CNS): > 100 µM
TGI (SR leukemia): > 100 µM
TGI (SW-620 colon): > 100 µM
TGI (TK-10 renal): > 100 µM
TGI (U251 CNS): > 100 µM
TGI (UACC-257 melanoma): > 100 µM
TGI (UACC-62 melanoma): > 100 µM
TGI (UO-31 renal): > 100 µM
TGI (XF 498 CNS): > 100 µM

COc1ccc2c([nH]c3cc(O)c(C)cc32)c1CC=C(C)C
GI50 (786-0 renal): 4.4 µM
TGI (786-0 renal): 8.61 µM
GI50 (A549 NSCLC): 8.47 µM
TGI (A549 NSCLC): > 25 µM
GI50 (ACHN renal): 9.35 µM
TGI (ACHN renal): > 25 µM
GI50 (CCRF-CEM leukemia): 5.4 µM
TGI (CCRF-CEM leukemia): 17.5 µM
TGI (COLO 205 colon): > 25 µM
GI50 (DLD-1 colon): 9.22 µM
TGI (DLD-1 colon): > 25 µM
TGI (DMS 114 small cell lung): > 25 µM
GI50 (DMS 273 small cell lung): 8.43 µM
TGI (DMS 273 small cell lung): 16.8 µM
GI50 (HCC-2998 colon): 5.49 µM
TGI (HCC-2998 colon): 14.5 µM
GI50 (HCT-116 colon): 11.9 µM
TGI (HCT-116 colon): > 25 µM
GI50 (HCT-15 colon): 5.14 µM
TGI (HCT-15 colon): > 25 µM
GI50 (HL-60(TB) leukemia): 7.94 µM
TGI (HL-60(TB) leukemia): > 25 µM
GI50 (HOP-92 NSCLC): 8.03 µM
TGI (HOP-92 NSCLC): > 25 µM
TGI (HT29 colon): > 25 µM
TGI (IGROV1 ovarian): > 25 µM
GI50 (K-562 leukemia): 5.78 µM
TGI (K-562 leukemia): 24 µM
GI50 (KM20L2 colon): 16.3 µM
TGI (KM20L2 colon): > 25 µM
GI50 (LOX IMVI melanoma): 4.36 µM
TGI (LOX IMVI melanoma): 7.8 µM
GI50 (LXFL 529 NSCLC): 8.63 µM
TGI (LXFL 529 NSCLC): > 25 µM
GI50 (M14 melanoma): 1.62 µM
TGI (M14 melanoma): 9.29 µM
GI50 (M19-MEL melanoma): 12.2 µM
TGI (M19-MEL melanoma): > 25 µM
GI50 (MALME-3M melanoma): 17.3 µM
TGI (MALME-3M melanoma): > 25 µM
GI50 (MOLT-4 leukemia): 4.94 µM
TGI (MOLT-4 leukemia): 15.9 µM
TGI (NCI-H226 lung): > 25 µM
GI50 (NCI-H460 lung): 5.56 µM
TGI (NCI-H460 lung): 14.1 µM
GI50 (NCI-H522 lung): 5.92 µM
TGI (NCI-H522 lung): 17.3 µM
TGI (OVCAR-3 ovarian): 12.4 µM
TGI (OVCAR-4 ovarian): > 25 µM
TGI (OVCAR-5 ovarian): > 25 µM
TGI (OVCAR-8 ovarian): 10.4 µM
TGI (RPMI-8226 leukemia): > 25 µM
GI50 (SF-268 CNS): 9.66 µM
TGI (SF-268 CNS): > 25 µM
GI50 (SF-539 CNS): 8.01 µM
TGI (SF-539 CNS): > 25 µM
TGI (SK-MEL-2 melanoma): > 25 µM
TGI (SK-MEL-28 melanoma): > 25 µM
GI50 (SK-MEL-5 melanoma): 8.04 µM
TGI (SK-MEL-5 melanoma): > 25 µM
TGI (SK-OV-3 ovarian): > 25 µM
TGI (SN12C renal): 10.8 µM
TGI (SNB-19 CNS): > 25 µM
TGI (SNB-78 CNS): > 25 µM
GI50 (SR leukemia): 7.19 µM
TGI (SR leukemia): > 25 µM
GI50 (SW-620 colon): 6.75 µM
TGI (SW-620 colon): 20.7 µM
GI50 (U251 CNS): 5.89 µM
TGI (U251 CNS): 13.7 µM
GI50 (UACC-62 melanoma): 9.11 µM
TGI (UACC-62 melanoma): > 25 µM
GI50 (UO-31 renal): 14.3 µM
TGI (UO-31 renal): > 25 µM
TGI (XF 498 CNS): > 25 µM
